Assay type in all cases: cell-based
Assay [1] concerns Alternaria solani. As to the kind of experiment: Microtiter test, activity against Alternaria solani (Use Example 4). The settings on record: 7 days.
For assay [2], the system named is Septoria tritici. Nature of the assay: Microtiter test, activity against leaf blotch on wheat caused by Septoria tritici (Use Example 3). To be noted: for inhibition of growth at 16 ppm / inhibition of growth at 63 ppm / inhibition of growth at 4 ppm: Zymoseptoria tritici, 168 h, read-out: Observed efficacy.
In assay [3] the test system is Colletotrichum truncatum. Nature of the assay: Microtiter test, activity against Colletotrichum truncatum (Use Example 5). To be noted: compound alone, 7 days.
Assay [4] concerns Leptosphaerium nodorum. Nature of the assay: Microtiter test, activity against Leptospharium nodorum (Use Example 6). To be noted: compound alone, 7 days.
The subject of assay [5] is Fusarium culmorum. As to the kind of experiment: Microtiter test, activity against Fusarium culmorum (Use Example 7). The settings on record: compound alone, 7 days.
Assay [6] concerns Pyricularia oryzae.
[7] abbreviates: Alternaria solani, 168 h, 63 ppm, compound alone, read-out: Observed efficacy.
The mark [8] stands for this setting: 0.25 ppm, compound alone, day 7.
[9] abbreviates: 0.016 ppm, compound alone, day 7.
The mark [10] stands for this setting: Alternaria solani, 168 h, read-out: Observed efficacy.

Like-named read-outs stand apart in the source and are kept apart here.

In the case of `Cc1c(COC(=O)[C@@H]2[C@H](/C=C(\Cl)C(F)(F)F)C2(C)C)cccc1-c1ccccc1` (racemic) [Bifenthrin, bifenthrin], the inhibition of growth at 63 ppm in assay [1] (setting [7]) was determined as 1%.
`CC1(C)[C@H](C(=O)O[C@H](C#N)c2cccc(Oc3ccccc3)c2)[C@@H]1/C=C(\Cl)C(F)(F)F` (racemic) [lambda-Cyalothrin, lambda-cyhalothrin]: the inhibition of growth at 16 ppm in assay [2] (16 ppm, compound alone, day 7) was 10%. Further, the inhibition of growth at 63 ppm in assay [2] (63 ppm, compound alone, day 7) was found to be 29%.
`Cn1cc(C(=O)Nc2ccccc2C2CC2C2CC2)c(C(F)F)n1` (single isomer, unassigned) [Sedaxane (trans diastereoisomer), N-(trans-2-bicycloprop-2-ylphenyl)-3-difluoromethyl-1-methyl-1H-pyrazole-4-carboxamide]: the Observed efficacy was 57% in assay [2] (setting [8]); 3% in assay [3] (0.25 ppm); 17% in assay [4] (0.25 ppm); 2% in assay [5] (0.25 ppm); 1% in assay [6] (setting [9]); 0% in assay [1] (0.063 ppm, compound alone). In assay [1] (0.25 ppm, compound alone), this compound came in with an Observed efficacy of 20%.
As for `COP(=O)(NC(C)=O)SC` (centres unmarked) [Acephate, acephate], the inhibition of growth at 4 ppm in assay [2] is 2%. For the same compound, the inhibition of growth at 1 ppm in assay [1] (setting [10]) amounted to 3%.
As to `CNC(=O)O/N=C/C(C)(C)SC` [Aldicarb, aldicarb], the inhibition of growth at 16 ppm in assay [2] stood at 7%.
With `Cn1cc(C(=O)Nc2ccc(F)cc2-c2ccc(Cl)c(Cl)c2)c(C(F)F)n1` [Bixafen, bixafen], the Observed efficacy in assay [2] turned out to be 48%; in assay [3] (0.25 ppm), 6%; in assay [4] (0.25 ppm), 16%; in assay [6] (0.063 ppm, compound alone, day 7) it was 6%; in assay [6] (setting [8]) it was 6%; in assay [1] it was 0%.
For the compound `CCOCn1c(-c2ccc(Cl)cc2)c(C#N)c(Br)c1C(F)(F)F` [Chlorfenapyr, chlorfenapyr], the inhibition of growth at 16 ppm in assay [2] (16 ppm, compound alone, day 7) was found to be 8%. Also, the Observed efficacy in assay [4] (63 ppm) was determined as 8%; in assay [6] (4 ppm, compound alone, day 7) it was 17%; in assay [6] (63 ppm, compound alone, day 7), 38%.
Turning to `CC1(C)[C@H](C(=O)O[C@H](C#N)c2cccc(Oc3ccccc3)c2)[C@@H]1C=C(Br)Br` [Deltamethrin, deltamethrin], in assay [2], the inhibition of growth at 16 ppm was determined as 0% and the inhibition of growth at 63 ppm turned out to be 3%. The compound also gave an Observed efficacy in assay [6] (4 ppm, compound alone, day 7) of 0%. Moreover, in assay [1] (setting [10]), the inhibition of growth at 1 ppm came to 0%, the inhibition of growth at 4 ppm is 5% and the inhibition of growth at 16 ppm worked out at 0%.
Take `CNC(=O)CSP(=S)(OC)OC` [Dimethoate, dimethoate]: the inhibition of growth at 4 ppm in assay [2] was 2%.
Take `O=S1OCC2C(CO1)C1(Cl)C(Cl)=C(Cl)C2(Cl)C1(Cl)Cl` (centres unmarked) [Endosulfan, endosulfan]: the inhibition of growth at 16 ppm in assay [2] was 3%; in assay [1] (setting [10]), 13%. Further, in assay [2], the inhibition of growth at 63 ppm was 26%. Also, the Observed efficacy was found to be 8% in assay [3] (63 ppm); 5% in assay [4] (63 ppm); 22% in assay [6] (16 ppm, compound alone, day 7); 73% in assay [6] (63 ppm, compound alone, day 7).
In assay [6], `CC(C)([CH2][Sn]([CH2]C(C)(C)c1ccccc1)([CH2]C(C)(C)c1ccccc1)[O][Sn]([CH2]C(C)(C)c1ccccc1)([CH2]C(C)(C)c1ccccc1)[CH2]C(C)(C)c1ccccc1)c1ccccc1` [Fenbutadin-oxyd, fenbutatin oxide] registered an Observed efficacy of 39%.
As to `Cc1cc(C(F)(C(F)(F)F)C(F)(F)F)ccc1NC(=O)c1cccc(I)c1C(=O)NC(C)(C)CS(C)(=O)=O` [Flubendiamid, flubendiamide], the inhibition of growth at 63 ppm in assay [2] (63 ppm, compound alone, day 7) was determined as 37%; in assay [1] (setting [7]), 0%. Besides, the Observed efficacy in assay [3] (63 ppm) is given as 0%; in assay [4] (63 ppm), 22%; in assay [5] (63 ppm), 3%; in assay [6] (4 ppm, compound alone, day 7), 0%; in assay [6] (63 ppm, compound alone, day 7) it was 15%.
For `CC1(C)CNC(=NN=C(/C=C/c2ccc(C(F)(F)F)cc2)/C=C/c2ccc(C(F)(F)F)cc2)NC1` [Hydramethylnon, hydramethylnon], in assay [2], the inhibition of growth at 16 ppm is 0% and the inhibition of growth at 63 ppm worked out at 4%. For the same compound, the Observed efficacy in assay [6] (4 ppm, compound alone, day 7) is given as 5%. Also, the inhibition of growth at 1 ppm in assay [1] (setting [10]) came out at 7%.
In the case of `Cn1cc(C(=O)Nc2ccccc2-c2cc(F)c(F)c(F)c2)c(C(F)F)n1` [Ia, N-(3′,4′,5′-trifluorobiphenyl-2-yl)-3-difluoro-methyl-1-methyl-1H-pyrazole-4-carboxamide], the Observed efficacy in assay [2] is given as 29%; in assay [6] (0.004 ppm, compound alone, day 7), 3%; in assay [1] it was 29%.
As for `COC(=O)N(C(=O)N1CO[C@@]2(C(=O)OC)Cc3cc(Cl)ccc3C2=N1)c1ccc(OC(F)(F)F)cc1` [Indoxacarb, indoxacarb], the Observed efficacy in assay [2] (16 ppm, compound alone, day 7) stood at 9%; in assay [2] (63 ppm, compound alone, day 7), 19%; in assay [6] (1 ppm, compound alone, day 7), 0%; in assay [1] (16 ppm, compound alone), 0%.
In the case of `CC(C)C1C2CCC1c1c(NC(=O)c3cn(C)nc3C(F)F)cccc12` (centres unmarked) [Isopyrazam, isopyrazam], the Observed efficacy in assay [2] is 58%; in assay [3] (0.25 ppm), 14%; in assay [4] (0.25 ppm), 13%; in assay [6] (setting [9]), 15%; in assay [1], 2%.
On to `COP(N)(=O)SC` (centres unmarked) [Methamidophos, methamidophos], for which the inhibition of growth at 4 ppm in assay [2] stood at 5%. In assay [1] (setting [10]), the inhibition of growth at 1 ppm is 8% and the inhibition of growth at 63 ppm worked out at 0%.
In the case of `Cc1nn(C)c(F)c1C(=O)Nc1ccccc1C(C)CC(C)C` (centres unmarked) [Penflufen, N-[2-(1,3-dimethylbutyl)-phenyl]-1,3-dimethyl-5-fluor-1H-pyrazole-4-carboxamide], the Observed efficacy in assay [2] is given as 44%; in assay [6] (setting [8]), 5%; in assay [1] it was 0%.
Consider `CCOP(=S)(OCC)SCSC(C)(C)C` [Terbufos, terbufos], for which, in assay [2], the inhibition of growth at 16 ppm came out at 14%.
`CC1(C)C(C=C(Cl)Cl)C1C(=O)OC(C#N)c1cccc(Oc2ccccc2)c1` (stereo not drawn) [alpha-Cypermethrin, alpha-cypermethrin] displayed an Observed efficacy in assay [6] (63 ppm, compound alone, day 7) of 41%. Moreover, the inhibition of growth at 63 ppm in assay [1] (setting [10]) turned out to be 0%.
As to abamectin, the Observed efficacy in assay [1] (1 ppm, compound alone) was determined as 2%.

The record behind these values is patent US8871679B2, “Fungicidal mixtures comprising substituted 1-methylpyrazol-4-ylcarboxanilides” (BASF SE, priority 2008, dated 2014).
